In US9556152B2, “Heterocyclic amides as kinase inhibitors” (GlaxoSmithKline Intellectual Property Development Limited, priority 2013, dated 2017):
Like-named read-outs stand apart in the source and are kept apart here.

Columns and labels:
[1] = tested on: mouse TNF and zVAD induced temperature loss in mice; experiment: TNF/zVAD-driven systemic inflammatory response syndrome model (short modality), temperature loss; type: in vivo
Description: (§1) TNF (or TNF/zVAD) induced manifestations include temperature loss, the production of numerous cytokines (including IL-6, IL-1b, MIP1β and MIP2) in the periphery, liver and intestinal inflammation and an increase of markers of cellular (LDH and CK) and liver damage (AST and ALT) in the serum.
Each test compound is run through the TNF/zVAD and TNF (alone) versions of the model. For example, mice (7 mice per group) were orally pre-dosed with vehicle or test compound at 50 mg/kg 15 minutes before i.v. administration of mouse TNF (30 m/mouse) and zVAD (0.4 mg/mouse) simultaneously. Temperature loss in the mice was measured by rectal probe. The study was terminated when the control group lost 7 degrees, per our IACUC protocol. […] All data are shown as means±standard error of the mean.

[2] = tested on: mouse TNF induced temperature loss in mice; experiment: TNF (alone)-driven systemic inflammatory response syndrome model (long modality), temperature loss; type: in vivo; settings: oral pre-dose 50 mg/kg 15 minutes before i.v. mouse TNF
Description: as §1
In addition to the TNF/zVAD model, each compound is also tested in a TNF alone model. For the TNF (alone) version of the model, mice (7 mice per group) were orally pre-dosed with vehicle or test compound at 50 mg/kg 15 minutes before i.v. administration of mouse TNF (30 m/mouse). […] All data are shown as means±standard error of the mean.

[3] = molecular target: T1, RIP1 kinase (GST-RipK1 (1-375)) (Homo sapiens, UniProt Q13546)
T1 sequence (Q13546 1-375): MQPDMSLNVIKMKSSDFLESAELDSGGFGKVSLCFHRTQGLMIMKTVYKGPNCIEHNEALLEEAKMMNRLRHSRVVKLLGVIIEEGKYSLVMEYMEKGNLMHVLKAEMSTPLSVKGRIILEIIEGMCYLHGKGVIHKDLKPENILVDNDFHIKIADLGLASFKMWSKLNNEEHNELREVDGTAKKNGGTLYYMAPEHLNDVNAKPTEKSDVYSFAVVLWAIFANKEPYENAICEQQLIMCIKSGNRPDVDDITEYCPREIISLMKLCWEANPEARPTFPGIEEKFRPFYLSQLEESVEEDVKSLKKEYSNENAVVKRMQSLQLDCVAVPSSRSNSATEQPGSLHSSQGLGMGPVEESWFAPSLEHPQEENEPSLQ
Description: A fluorescent polarization based binding assay was developed to quantitate interaction of novel test compounds at the ATP binding pocket of RIP1, by competition with a fluorescently labeled ATP competitive ligand. […] Following the incubation, 5 ul of the fluorescent labeled ligand solution, was added to each reaction, at twice the final assay concentration, and incubated at room temperature for at least 15 minutes. Finally, samples were read on an instrument capable of measuring fluorescent polarization. Test compound inhibition was expressed as percent (%) inhibition of internal assay controls. For concentration response experiments, normalized data were fit and pIC50s determined using conventional techniques.

[4] = average pIC50 after continued testing, FP competition binding, updated average after continued testing
[5] = mean pIC50, FP competition binding, GST-RipK1 (1-375) 10 nM, fluorescent ligand 5 nM, mean of minimum 2 experiments
[6] = oral pre-dose 10 mg/kg 15 minutes before i.v. mouse TNF and zVAD
[7] = oral pre-dose 30 mg/kg 15 minutes before i.v. mouse TNF and zVAD

O=C(N[C@H]1CCc2cc(Cl)ccc2NC1=O)c1nnc(Cc2ccccc2)[nH]1 [Example 161, (S)-5-benzyl-N-(7-chloro-2-oxo-2,3,4,5-tetrahydro-1H-benzo[b]azepin-3-yl)-4H-1,2,4-triazole-3-carboxamide]
% Inhibition ([1]; oral pre-dose 50 mg/kg 15 minutes before i.v. mouse TNF and zVAD): 85%
% Inhibition [2]: 82%
IC50 [3, 4]: 0.02 µM
IC50 [3, 5]: ~0.0126 µM

CN1C(=O)[C@@H](NC(=O)c2ncn(Cc3ccccc3)n2)COc2ccccc21 [Example 45, (S)-1-benzyl-N-(5-methyl-4-oxo-2,3,4,5-tetrahydrobenzo[b] [1,4]oxazepin-3-yl)-1H-1,2,4-triazole-3-carboxamide]
% Inhibition [1, 6]: 91%

CN1C(=O)[C@@H](NC(=O)c2cc(Cc3ccccc3)n[nH]2)COc2ccc(Br)cc21 [Example 20, (S)-3-benzyl-N-(7-bromo-5-methyl-4-oxo-2,3,4,5-tetrahydrobenzo[b] [1,4]oxazepin-3-yl)-1H-pyrazole-5-carboxamide]
% Inhibition [1, 7]: 52%
% Inhibition [2]: 51%

CN1C(=O)[C@@H](NC(=O)c2nnc(Cc3ccccc3)[nH]2)COc2cccc(F)c21 [Example 91, (S)-5-benzyl-N-(6-fluoro-5-methyl-4-oxo-2,3,4,5-tetrahydrobenzo[b] [1,4]oxazepin-3-yl)-4H-1,2,4-triazole-3-carboxamide]
IC50 [3, 5]: ~0.0251 µM

CN1C(=O)[C@@H](NC(=O)c2cc(Cc3ccccc3)[nH]n2)CNc2ccccc21 [Example 190, (S)-5-benzyl-N-(1-methyl-2-oxo-2,3,4,5-tetrahydro-1H-benzo[b] [1,4]diazepin-3-yl)-1H-pyrazole-3-carboxamide]
% Inhibition [1, 7]: 85%
% Inhibition [2]: 56%

O=C(N[C@H]1CCc2cc(Br)ccc2NC1=O)c1nnc(Cc2ccccc2)[nH]1 [Example 163, (S)-5-benzyl-N-(7-bromo-2-oxo-2,3,4,5-tetrahydro-1H-benzo[b]azepin-3-yl)-4H-1,2,4-triazole-3-carboxamide]
% Inhibition [1, 6]: 73%
IC50 [3, 5]: ~0.0126 µM

CN1C(=O)[C@@H](NC(=O)c2cc(Cc3ccc(F)cc3)n[nH]2)COc2ccccc21 [Example 125, (S)-3-(4-fluorobenzyl)-N-(5-methyl-4-oxo-2,3,4,5-tetrahydrobenzo[b] [1,4]oxazepin-3-yl)-1H-pyrazole-5-carboxamide]
% Inhibition [1, 7]: 25%

Cc1ccc(Cc2cc(C(=O)N[C@H]3CNc4ccccc4N(C)C3=O)n[nH]2)cc1 [Example 64, (S)-N-(1-methyl-2-oxo-2,3,4,5-tetrahydro-1H-benzo[b][1,4]diazepin-3-yl)-5-(4-methylbenzyl)-1H-pyrazole-3-carboxamide]
% Inhibition [1, 7]: 62%

Cc1cc(F)c2c(c1)OC[C@H](NC(=O)c1nnc(CC3CCCC3)[nH]1)C(=O)N2 [Example 102, (S)-5-(cyclopentylmethyl)-N-(6-fluoro-8-methyl-4-oxo-2,3,4,5-tetrahydrobenzo[b] [1,4]oxazepin-3-yl)-4H-1,2,4-triazole-3-carboxamide]
IC50 [3, 5]: ~0.0158 µM

CN1C(=O)[C@@H](NC(=O)c2cc(Cc3ccccc3)on2)CNc2ccccc21 [Example 235, (S)-5-benzyl-N-(1-methyl-2-oxo-2,3,4,5-tetrahydro-1H-benzo[b] [1,4]diazepin-3-yl)isoxazole-3-carboxamide]
% Inhibition [1, 7]: 58%
% Inhibition [2]: 73%

Cc1nnc(-c2ccc3c(c2)N(C)C(=O)[C@@H](NC(=O)c2nnc(Cc4ccccc4)[nH]2)CO3)o1 [Example 169, (S)-5-benzyl-N-(5-methyl-7-(5-methyl-1,3,4-oxadiazol-2-yl)-4-oxo-2,3,4,5-tetrahydrobenzo[b][1, 4]oxazepin-3-yl)-4H-1,2,4-triazole-3-carboxamide]
IC50 [3, 4]: 0.0501 µM
IC50 [3, 5]: ~0.0631 µM

CN1C(=O)[C@@H](NC(=O)c2cc(Cc3ccccc3)n[nH]2)COc2ccccc21 [Example 108, (S)-3-benzyl-N-(5-methyl-4-oxo-2,3,4,5-tetrahydrobenzo[b] [1,4]oxazepin-3-yl)-1H-pyrazole-5-carboxamide]
% Inhibition [1, 7]: 56%

Cc1ccc(Cc2cc(C(=O)N[C@H]3COc4ccccc4N(C)C3=O)[nH]n2)cc1 [Example 176, (S)-N-(5-methyl-4-oxo-2,3,4,5-tetrahydrobenzo[b] [1,4]oxazepin-3-yl)-5-(4-methylbenzyl)-1H-pyrazole-3-carboxamide]
% Inhibition [1, 7]: 34%

CN1C(=O)[C@@H](NC(=O)c2cc(Oc3ccccc3)ccn2)COc2ccccc21 [Example 97, (S)-N-(5-methyl-4-oxo-2,3,4,5-tetrahydrobenzo[b] [1,4]oxazepin-3-yl)-4-phenoxypicolinamide]
% Inhibition [1, 7]: 70%

O=C(N[C@H]1CCc2ccccc2NC1=O)c1cc(Cc2ccccc2)on1 [Example 236, (S)-5-benzyl-N-(2-oxo-2,3,4,5-tetrahydro-1H-benzo[b]azepin-3-yl)isoxazole-3-carboxamide]
% Inhibition [1, 7]: 23%
